Measured values published in patent US9987216B2, “Plant fat composition for cosmetic preparation” (priority 2016, dated 2018).

Experiments:
[1] = Journal of the American College of Toxicology Vol. 6, No. 3, 1987; cited from earlier work
[2] = tested on: skin on the inner side of the upper arm; assay: Skin irritation in the test subjects of the TEWL test; assay type: in vivo; conditions: all test subjects (n=6), 100 μl on the skin
Procedure: 100 μl of each product was applied to the skin on the inner side of the upper arm and kept absorbed into the skin for 5 minutes. The transepidermal water loss was then measured at predetermined intervals. In addition, all the test subjects (n=6) had no irritation to both the plant fat composition of the present invention and the plant-derived squalane.

[3] = DPPH radical scavenging (antioxidative effect); conditions: concentration of 10%; 30 minutes in the dark, absorbance 540 nm
Procedure: DPPH (2,2-diphenyl-1-picryl-hydrazyl) is a purple-colored stable free radical substance that receives hydrogens from an antioxidant to undergo decolorization. Upon exposure to an antioxidant, the DPPH acts as a […] the antioxidant and becomes removed of free radicals, resulting in decolorization, which makes it possible to evaluate the radical-scavenging activity.
Vitamin E (acetate) was used as a control.
(a) Prepare a 0.2 mM DPPH reagent dissolved in n-hexane.
(b) Prepare test samples by concentration.
(c) Add 100 μl of the reagent and 100 μl of each sample in four wells of a 96-well test plate.
(d) Add 100 μl of the reagent and 100 μl of a solvent in four wells to remove the blank value.
(e) Kept in the dark for 30 minutes at the room temperature.
(f) Measure the absorbance at 540 nm with an ELISA reader (TECAN microplate reader).
Analysis Method (Calculation Method) DPPH radical scavenging ability (%)=[1−(absorbance of sample/absorbance of blank)]×100

Row | Structure (SMILES) | safety in use for cosmetic formulations [1] | other results
1 | CCCCCCCCCCCCCCCCCC(=O)O [stearic acid] | safe | –
2 | CC(C)CCCC(C)CCCC(C)CCCCC(C)CCCC(C)CCCC(C)C (stereo not shown) [plant-derived squalane, squalane] | – | skin irritation [2]: no irritation
3 | CCCCCCCCCCCC(=O)O [lauric acid] | safe | –
4 | CCCCCCCCCCCCCC(=O)O [myristic acid] | safe | –
5 | CC(=O)Oc1c(C)c(C)c2c(c1C)CCC(C)(CCC[C@H](C)CCC[C@H](C)CCCC(C)C)O2 (stereo partly shown) [vitamin E, Vitamin E (acetate)] | – | DPPH radical scavenging activity [3]: 5%
6 | CCCCCCCCCCCCCCCC(=O)O [palmitic acid] | safe | –
7 | CCCCCCCC/C=C\CCCCCCCC(=O)O [oleic acid] | safe | –
